{"source": "patent US6783947B1", "about": "“Protecting groups for biological labeling” (Dade Behring Marburg GmbH, priority 1999, dated 2004)", "key": {"[1]": {"test": "Storage stability of derivatizing agent, monitored by total LOCI assay signal modulation (three-reagent protocol)", "type": "physicochemical", "method": "A 50 μL mixture of hcy-ABA-sensitizer beads (0.1 mg/ml) and 2 mM TCEP is added to 5 μL hcy serum calibrator in a reaction cuvette, followed by the addition of 50 μL assay buffer. The mixture is incubated for 417 sec. Then, 50 μL of 5 mM BABA is added and followed by 45 μL assay buffer. Following incubation for 157 sec., 50 μL of Ab-coated acceptor beads (at 0.25-0.5 mg/ml) is added. After incubation for 154 sec., the sample is read.\nIn Table 2, the three-reagent protocol is used as described previously, with 5 mM BABA stored in a different pH buffer as R-2 (reagent 2).\nThe activity of BABA is monitored by the amount of total assay signal modulation obtained by LOCI using the three-reagent protocol.\nThe three-reagent assay protocol using CABA-phosphate as derivatizing agent is also assessed. Similar results are obtained with hcy serum calibrators as in the three-reagent protocol using BABA (not shown). The stability of CABA is also studied. The activity of CABA-phosphate as derivatizing agent is monitored by the amount of total assay signal modulation obtained by LOCI using the three-reagent protocol. In Table 3, the three-reagent assay protocol is used with CABA-phosphate stored at two temperatures in pH 9.0 as R-2; mixed hcy-sensitizer beads and TCEP as R-1; mixed Ab-acceptor beads and alkaline phosphatase as R-3."}, "[2]": {"molecular_target": "T1, alkaline phosphatase (Sigma, human placenta) (Homo sapiens, UniProt P05187)", "T1 construct": "alkaline phosphatase (Sigma, human placenta); purchased Sigma; host or cells: human placenta (tissue-derived)", "T1 sequence (P05187 23-506)": "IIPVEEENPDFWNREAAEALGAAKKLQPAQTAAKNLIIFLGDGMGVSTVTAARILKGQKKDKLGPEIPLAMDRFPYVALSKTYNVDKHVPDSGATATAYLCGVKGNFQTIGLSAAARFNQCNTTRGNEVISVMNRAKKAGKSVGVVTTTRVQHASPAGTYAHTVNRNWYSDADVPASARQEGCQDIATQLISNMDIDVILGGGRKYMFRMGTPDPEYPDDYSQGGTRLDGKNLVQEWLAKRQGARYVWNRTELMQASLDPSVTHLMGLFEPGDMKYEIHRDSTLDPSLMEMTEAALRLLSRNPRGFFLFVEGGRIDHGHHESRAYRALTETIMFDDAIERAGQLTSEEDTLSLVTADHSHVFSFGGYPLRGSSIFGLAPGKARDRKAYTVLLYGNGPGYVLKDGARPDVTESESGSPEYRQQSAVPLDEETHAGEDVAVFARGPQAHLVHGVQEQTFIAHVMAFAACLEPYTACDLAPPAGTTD", "test": "Deprotection of phosphate protecting group by alkaline phosphatase (TLC, NMR)", "type": "biochemical", "conditions": "mixture of BABA-phosphate and CABA-phosphate, 5 mg in 1 mL pH 8-9 NaOD/D2O, 1 mg (15 units) enzyme, 15 minutes, room temperature", "method": "A mixture of BABA-phosphate and CABA-phosphate (resulting from preparation of BABA-phosphate), 5 mg in 1 mL pH 8-9 NaOD/D2O is treated with 1 mg (15 units) of alkaline phosphatase (Sigma, human placenta) for 15 minutes at room temperature.\nReaction of the crude product of the reaction with alkaline phosphatase, for about ten (10) minutes, with cysteine, results in the disappearance of the first product, deprotected alkylating reagent, and appearance of a more polar product. The latter is assumed to be an adduct of the alkylating reagent and cysteine."}, "[3]": {"test": "Stability of alkylating reagent in the presence of reducing agent TCEP (TLC)", "type": "physicochemical", "conditions": "5 mM each in phosphate buffer pH 7, sixteen (16) hours, room temperature"}, "Solubility": {"test": "Solubility", "type": "physicochemical", "conditions": "over a wide pH range"}}, "note": "Counter-ions that a name gives are not always drawn.", "data": [{"smiles": "O=C(O)c1ccc(C(=O)CBr)cc1", "note": "[BABA, bromoacetylbenzoic acid, reference compound]", "values": [{"measurement": "stability of BABA in solution", "setting": "[1]; even at the optimum condition, pH 6.0", "value": "limited stability"}]}, {"smiles": "O=C(O)c1ccc(/C(=C/Cl)OP(=O)(O)O)cc1", "note": "[CABA-phosphate, 4-(chloroacetyl)benzoate enol-phosphate sodium salt]", "values": [{"measurement": "removal of the phosphate group by alkaline phosphatase (TLC, NMR)", "setting": "[2]", "value": "removed"}, {"measurement": "reaction of the protected alkylating reagent with TCEP (TLC)", "setting": "[3]", "value": "resistant to reaction with TCEP"}, {"measurement": "% Modulation (0 to 60 μM)", "setting": "[1]; 5 mM in 50 mM borate buffer pH 9.0, stored @4° C., 1 wk", "value": 54, "unit": "%"}, {"measurement": "% Modulation (0 to 60 μM)", "setting": "[1]; 5 mM in 50 mM borate buffer pH 9.0, stored @4° C., 2 wks", "value": 56, "unit": "%"}, {"measurement": "% Modulation (0 to 60 μM)", "setting": "[1]; 5 mM in 50 mM borate buffer pH 9.0, stored @4° C., 5 wks", "value": 55, "unit": "%"}, {"measurement": "% Modulation (0 to 60 μM)", "setting": "[1]; 5 mM in 50 mM borate buffer pH 9.0, stored @4° C., 7 wks", "value": 54, "unit": "%"}, {"measurement": "% Modulation (0 to 60 μM)", "setting": "[1]; 5 mM in 50 mM borate buffer pH 9.0, stored @4° C., 10 wks", "value": 51, "unit": "%"}, {"measurement": "% Modulation (0 to 60 μM)", "setting": "[1]; 5 mM in 50 mM borate buffer pH 9.0, stored @4° C., 13 wks", "value": 45, "unit": "%"}, {"measurement": "% Modulation (0 to 60 μM)", "setting": "[1]; 5 mM in 50 mM borate buffer pH 9.0, stored @4° C., o/n", "value": 57, "unit": "%"}, {"measurement": "% Modulation (0 to 60 μM)", "setting": "[1]; 5 mM in 50 mM borate buffer pH 9.0, stored @37° C., 1 wk", "value": 45, "unit": "%"}, {"measurement": "% Modulation (0 to 60 μM)", "setting": "[1]; 5 mM in 50 mM borate buffer pH 9.0, stored @37° C., 2 wks", "value": 51, "unit": "%"}, {"measurement": "% Modulation (0 to 60 μM)", "setting": "[1]; 5 mM in 50 mM borate buffer pH 9.0, stored @37° C., 5 wks", "value": 50, "unit": "%"}, {"measurement": "% Modulation (0 to 60 μM)", "setting": "[1]; 5 mM in 50 mM borate buffer pH 9.0, stored @37° C., 7 wks", "value": 51, "unit": "%"}, {"measurement": "% Modulation (0 to 60 μM)", "setting": "[1]; 5 mM in 50 mM borate buffer pH 9.0, stored @37° C., 10 wks", "value": 44, "unit": "%"}, {"measurement": "% Modulation (0 to 60 μM)", "setting": "[1]; 5 mM in 50 mM borate buffer pH 9.0, stored @37° C., 13 wks", "value": 35, "unit": "%"}, {"measurement": "% Modulation (0 to 60 μM)", "setting": "[1]; 5 mM in 50 mM borate buffer pH 9.0, stored @37° C., o/n", "value": 55, "unit": "%"}, {"measurement": "shelf life compared with BABA", "setting": "[1]; three-reagent protocol, Table 3", "value": "much longer shelf life than BABA"}, {"measurement": "solubility", "setting": "Solubility", "value": "readily soluble"}]}]}
